Earlier results, collected in patent US10799517B2, “Oral composition of celecoxib for treatment of pain” (Dr. Reddy's Laboratories Ltd., priority 2015, dated 2020).

Legend:
[1] = between 5° C. and 40° C.; pH independent at pH<9
[2] = upon oral administration

aqueous solubility [1]: about 5 μg/ml
time for peak plasma concentrations to be achieved [2]: approximately 3.0 hours
SMILES: Cc1ccc(-c2cc(C(F)(F)F)nn2-c2ccc(S(N)(=O)=O)cc2)cc1 [Celecoxib, 4-[5-(4-methylphenyl)-3-(trifluoromethyl)-1H-pyrazol-1-yl] benzenesulfonamide]
